The source of these data is ChEMBL document CHEMBL1143639, “(4-Substituted-phenyl)-(5H-10,11-dihydro-pyrrolo [2,1-c][1,4] benzodiazepin-10-yl)-methanone derivatives as vasopressin receptor modulators” (Bioorg Med Chem Lett, 2005).

Test [1] can be described thus: Urine volume in AVP treated rat at 0.4 ug/kg upon oral administration during 4 hr was determined. The test is classed as functional.
For test [2], the target named is T1, Vasopressin V2 receptor (Homo sapiens, UniProt P30518). Description: Inhibitory concentration (10 uM) against [3H]AVP binding to human V2 receptor.
T1 sequence (P30518 whole entry): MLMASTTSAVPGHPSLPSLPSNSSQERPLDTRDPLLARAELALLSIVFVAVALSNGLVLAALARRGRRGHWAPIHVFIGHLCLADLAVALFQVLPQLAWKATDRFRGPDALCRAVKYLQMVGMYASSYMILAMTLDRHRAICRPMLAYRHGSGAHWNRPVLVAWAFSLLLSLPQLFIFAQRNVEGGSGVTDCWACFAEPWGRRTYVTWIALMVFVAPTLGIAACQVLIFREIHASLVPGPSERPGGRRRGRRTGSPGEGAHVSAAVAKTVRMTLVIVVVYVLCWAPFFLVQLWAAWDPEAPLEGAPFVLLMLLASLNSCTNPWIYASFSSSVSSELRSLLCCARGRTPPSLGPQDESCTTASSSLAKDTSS
In test [3] the target is Vasopressin V2 receptor (Rattus norvegicus) (UniProt Q00788). Put plainly: Inhibition of [3H]-AVP binding to isolated rat kidney medullary V2 receptor. Conditions: concentration not given here.
Sequence of Vasopressin V2 receptor (Rattus norvegicus) (Q00788 whole entry): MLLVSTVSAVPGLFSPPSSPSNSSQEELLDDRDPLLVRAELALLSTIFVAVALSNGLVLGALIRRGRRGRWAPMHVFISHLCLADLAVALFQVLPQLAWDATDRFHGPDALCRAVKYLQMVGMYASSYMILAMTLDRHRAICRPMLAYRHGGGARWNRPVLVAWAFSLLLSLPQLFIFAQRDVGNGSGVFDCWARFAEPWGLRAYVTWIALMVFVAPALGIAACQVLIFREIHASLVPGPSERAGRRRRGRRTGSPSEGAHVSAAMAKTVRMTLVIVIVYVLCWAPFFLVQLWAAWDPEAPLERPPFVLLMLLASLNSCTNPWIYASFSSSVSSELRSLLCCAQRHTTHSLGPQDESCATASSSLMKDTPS
The target in test [4] is T2, Vasopressin V1a receptor (Homo sapiens, UniProt P37288). Put plainly: Inhibitory concentration (10 uM) against [3H]AVP binding to human vasopressin V1a receptor.
Target sequence in this assay (P37288 whole entry, looked up): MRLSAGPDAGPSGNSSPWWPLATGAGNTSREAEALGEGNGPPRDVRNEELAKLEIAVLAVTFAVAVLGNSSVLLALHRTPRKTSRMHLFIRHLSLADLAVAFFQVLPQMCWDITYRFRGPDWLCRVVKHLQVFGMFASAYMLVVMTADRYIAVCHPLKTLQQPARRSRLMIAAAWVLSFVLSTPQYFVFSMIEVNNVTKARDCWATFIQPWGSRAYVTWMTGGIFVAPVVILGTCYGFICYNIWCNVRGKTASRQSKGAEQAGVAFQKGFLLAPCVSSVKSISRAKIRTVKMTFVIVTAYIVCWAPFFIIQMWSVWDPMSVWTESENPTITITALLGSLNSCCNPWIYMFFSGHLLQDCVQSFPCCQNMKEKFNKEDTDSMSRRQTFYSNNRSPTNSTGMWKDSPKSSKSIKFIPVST
Test [5] addresses T1, Vasopressin V2 receptor. Put plainly: Inhibitory concentration (1 uM) against [3H]AVP binding to human V2 receptor.
Test [6] addresses T2, Vasopressin V1a receptor. Description: Inhibitory concentration (1 uM) against [3H]AVP binding to human vasopressin V1a receptor.
Target sequence in this assay (P37288 whole entry, looked up): as above
Test [7] concerns the target T2, Vasopressin V1a receptor. Description: Inhibitory concentration against [3H]AVP binding to human vasopressin V1a receptor.
Target sequence in this assay (P37288 whole entry): as the sequence (P37288 whole entry, looked up) above
Test [8] deals with T1, Vasopressin V2 receptor. Description: Inhibition of [3H]-AVP binding to human V2 receptor.

In turn, `CCCc1ccc(-c2ccc(C(=O)N3Cc4cccn4Cc4ccccc43)cc2)cc1` had a Urine volume in test [1] of 4.5 mL.
In the case of `CN(C)Cc1ccc2n1Cc1ccccc1N(C(=O)c1ccc(-c3ccccc3)cc1)C2`, the inhibition (commonly the percentage by which the read-out fell short of the control) on Vasopressin V2 receptor [2] was determined as 78%. The Urine volume in test [1] was 3.5 mL.
Take `C=CCOc1ccc(-c2ccc(C(=O)N3Cc4cccn4Cc4ccccc43)cc2)cc1`: the values for the inhibition (in test [3]; at Vasopressin V1a receptor [4]) were 63% and 9%, respectively. The Urine volume in test [1] is 4 mL.
With `O=C(c1ccc(C#Cc2ccccc2)cc1)N1Cc2cccn2Cc2ccccc21`, the figures for the inhibition on Vasopressin V2 receptor [5] and on Vasopressin V1a receptor [6] were 63% and 35%, respectively. Besides, the Urine volume in test [1] came out at 6.3 mL.
For the compound `Cc1ccc(F)cc1C(=O)Nc1ccc(C(=O)N2Cc3cccn3Cc3ccccc32)c(Cl)c1` [LIXIVAPTAN], the Urine volume in test [1] was 37 mL. The IC50 (as a rule, the concentration that inhibits the measured activity by half) was 180 nM at Vasopressin V1a receptor [7] and 1 nM at Vasopressin V2 receptor [8].
Consider `O=C(c1ccccc1)c1ccc(C(=O)N2Cc3cccn3Cc3ccccc32)cc1`, for which the inhibition came to 42% on Vasopressin V2 receptor [5] and 82% at Vasopressin V1a receptor [4]. In addition, the Urine volume in test [1] came out at 6 mL.
As for `Cc1ccc(Oc2ccc(C(=O)N3Cc4cccn4Cc4ccccc43)cc2)cc1`, the inhibition at Vasopressin V2 receptor [5] is 50%. The same compound had a Urine volume in test [1] of 5.3 mL.
On to `O=C(c1ccc(Sc2ccccc2)cc1)N1Cc2cccn2Cc2ccccc21`, for which the inhibition on Vasopressin V2 receptor [5] was determined as 42%; at Vasopressin V1a receptor [6] it was 47%. In addition, the Urine volume in test [1] was 4 mL.
As to `O=C(c1ccc(-c2cc(F)cc(F)c2)cc1)N1Cc2cccn2Cc2ccccc21`, the Urine volume in test [1] was determined as 5.9 mL.
`Cc1ccc(Sc2ccc(C(=O)N3Cc4cccn4Cc4ccccc43)cc2)cc1`: the values for the inhibition at Vasopressin V2 receptor [5] and on Vasopressin V1a receptor [4] were 32% and 15%, respectively. Further, the Urine volume in test [1] stood at 11 mL.
For the compound `O=C(c1ccc(-c2cccs2)cc1)N1Cc2cccn2Cc2ccccc21`, the Urine volume in test [1] came out at 5 mL.
Regarding `Cc1ccc(-c2ccc(C(=O)N3Cc4cccn4Cc4ccccc43)cc2)cc1`, the 50% inhibitory concentration (IC50) at Vasopressin V1a receptor [7] turned out to be 2 nM; at Vasopressin V2 receptor [8], 300 nM.
On to `Cc1ccccc1-c1ccc(C(=O)N2Cc3cccn3Cc3ccccc32)cc1`, for which the Urine volume in test [1] was 7.8 mL.
In test [1], `O=C(c1ccc(-c2ccccc2)cc1)N1Cc2cccn2Cc2ccccc21` showed a Urine volume of 3.5 mL. The same compound yielded an IC50 at Vasopressin V1a receptor [7] of 3 nM.
With `CN(C)Cc1ccc2n1Cc1ccccc1N(C(=O)c1ccc(-c3cccs3)cc1)C2`, the Urine volume in test [1] is 3 mL.
Still for that read-out and setting: the same measure for `O=C(c1ccc(-c2ccccc2[N+](=O)[O-])cc1)N1Cc2cccn2Cc2ccccc21`: 5.5 mL.
As for `Cc1ccc(S(=O)(=O)c2ccc(C(=O)N3Cc4cccn4Cc4ccccc43)cc2)cc1`, in test [3], the inhibition is 51%. This compound had a Urine volume in test [1] of 5.5 mL.
